Patent publication US12157730B2, “Heteroaryl derivative, method for producing same, and pharmaceutical composition comprising same as effective component” (VORONOI INC., priority 2019, dated 2024)

These molecules were tested against T1, Ba/F3 cell EGFR Exon20 ins NPH (Homo sapiens, UniProt P00533, INS773NPH) (assay: Ba/F3 cell proliferation suppression, EGFR Exon20 ins NPH). Conditions: GI50 class; Ba/F3 cell line with NPH inserted at Exon20 of EGFR; 72 hours.
T1 construct: expressed in transfected cells; host or cells: Ba/F3
Format: cell-based
Procedure, shortened: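 After 72 h compound exposure (twelve 3-fold steps, 0.3 nM–50 um final), live cells were measured by CellTiter-Glo luminescence and growth expressed as % of control to derive GI50. Cells were seeded at 3000–5000 per well a day earlier; Ba/F3 medium contained IL-3; three repeats.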

Row | Compound | Ba/F3 (NPH) Activity
1 | C=CC(=O)Nc1cc(Nc2cc(N3OCC[C@H]3Cc3ccccc3)ncn2)c(OC)cc1N1CCN(CC2CC2)CC1 [compound 967, N-(5-((6-((R)-3-benzylisoxazolidine-2-yl)pyrimidine-4-yl)amino)-2-(4-(cyclopropylmethyl)piperazine-1-yl)-4-methoxyphenyl) acrylamide] | C (500 nM ≤ GI50 < 5000 nM)
2 | C=CC(=O)Nc1cc(Nc2cc(N3OCC[C@@H]3Cc3ccccc3)ncn2)c(OC)cc1N1CCN(C(C)C)CC1 [compound 954, N-(5-((6-((S)-3-benzylisoxazolidine-2-yl)pyrimidine-4-yl)amino)-2-(4-isopropylpiperazine-1-yl)-4-methoxyphenyl) acrylamide] | A (GI50 < 50 nM)
3 | C=CC(=O)Nc1cc(Nc2cc(N3OCC[C@@H]3c3cccc4ccccc34)ncn2)c(OC)cc1N1CCC(N2CCN(C3COC3)CC2)CC1 [Example 198, N-(4-methoxy-5-((6-((R)-3-(naphthalene-1-yl)isoxazolidine-2-yl)pyrimidine-4-yl)amino)-2-(4-(4-(oxetane-3-yl)piperazine-1-yl)piperidine-1-yl)phenyl)acrylamide] | A (GI50 < 50 nM)
4 | C=CC(=O)Nc1cc(Nc2cc(N3OCC[C@@H]3c3cc(F)cc(F)c3)ncn2)c(OC)cc1N1CCC(N2CCOC[C@@H]2C)CC1 [compound 843, N-(5-((6-((R)-3-(3,5-difluorophenyl)isoxazolidine-2-yl)pyrimidine-4-yl)amino)-4-methoxy-2-(4-((S)-3-methylmorpholino)piperidine-1-yl)phenyl) acrylamide] | A (GI50 < 50 nM)
5 | C=CCN1CCN(C2CCN(c3cc(OC)c(Nc4cc(N5OCC[C@@H]5c5ccc(F)c(Cl)c5)ncn4)cc3NC(=O)C=C)CC2)CC1 [Example 89, N-(2-(4-(4-allylpiperazine-1-yl)piperidine-1-yl)-5-((6-((R)-3-(3-chloro-4-fluorophenyl)isoxazolidine-2-yl)pyrimidine-4-yl)amino)-4-methoxyphenyl) acrylamide] | A (GI50 < 50 nM)
6 | C=CC(=O)Nc1cc(Nc2cc(N3OCC[C@@H]3c3cc(F)cc(Cl)c3F)ncn2)c(OC)cc1N1CCC(N2CCN(C3CC3)CC2)CC1 [compound 938, N-(5-((6-((R)-3-(3-chloro-2,5-difluorophenyl)isoxazolidine-2-yl)pyrimidine-4-yl)amino)-2-(4-(4-cyclopropylpiperazine-1-yl)piperidine-1-yl)-4-methoxyphenyl) acrylamide] | A (GI50 < 50 nM)
7 | C=CC(=O)Nc1cc(Nc2cc(N3OCC[C@@H]3c3ccc(C)nc3)ncn2)c(OC)cc1N1CCC(N2CCN(C3CC3)CC2)CC1 [Example 67, N-(2-(4-(4-cyclopropylpiperazine-1-yl)piperidine-1-yl)-4-methoxy-5-((6-((R)-3-(6-methylpyridine-3-yl)isoxazolidine-2-yl)pyrimidine-4-yl)amino)phenyl) acrylamide] | B (50 nM ≤ GI50 < 500 nM)
8 | C=CC(=O)Nc1cc(Nc2cc(N3OCC[C@@H]3c3ccc(F)cc3)ncn2)c(OC)cc1N1CCC(N2CCN(C3COC3)CC2)CC1 [Example 85, N-(5-((6-((R)-3-(4-fluorophenyl)isoxazolidine-2-yl)pyrimidine-4-yl)amino)-4-methoxy-2-(4-(4-(oxetane-3-yl)piperazine-1-yl)piperidine-1-yl)phenyl) acrylamide] | A (GI50 < 50 nM)
9 | C=CCN1CCN(C2CCN(c3cc(OC)c(Nc4cc(N5OCC[C@@H]5c5cccc(Cl)c5C)ncn4)cc3NC(=O)C=C)CC2)CC1 [Example 213, N-(2-(4-(4-allylpiperazine-1-yl)piperidine-1-yl)-5-((6-((R)-3-(3-chloro-methylphenyl)isoxazolidine-2-yl)pyrimidine-4-yl)amino)-4-methoxyphenyl) acrylamide] | A (GI50 < 50 nM)
10 | C=CC(=O)Nc1cc(Nc2cc(N3OCC[C@@H]3c3ccc(F)c(F)c3)ncn2)c(OC)cc1N1CCC(N2CCN(C3CC3)CC2)CC1 [Example 161, N-(2-(4-(4-cyclopropylpiperazine-1-yl)piperidine-1-yl)-5-((6-((R)-3-(3,4-difluorophenyl)isoxazolidine-2-yl)pyrimidine-4-yl)amino)-4-methoxyphenyl) acrylamide] | A (GI50 < 50 nM)

Now from value to molecule:

Row | Ba/F3 (NPH) Activity | Compound
11 | A (GI50 < 50 nM) | C=CC(=O)Nc1cc(Nc2cc(N3OCC[C@@H]3c3cccc(Cl)c3Cl)ncn2)c(OC)cc1N1CCN(C2COC2)CC1 [compound 520, N-(5-((6-((R)-3-(2,3-dichlorophenyl)isoxazolidine-2-yl)pyrimidine-4-yl)amino)-4-methoxy-2-(4-(oxetane-3-yl)piperazine-1-yl)phenyl) acrylamide]
12 | A (GI50 < 50 nM) | C=CC(=O)Nc1cc(Nc2cc(N3OCC[C@@H]3c3cccc(F)c3F)ncn2)c(OC)cc1N1CC2CCC(C1)O2 [compound 887, N-(2-(8-oxa-3-azabicyclo[3.2.1]octan-3-yl)-5-((6-((R)-3-(2,3-difluorophenyl)isoxazolidine-2-yl)pyrimidine-4-yl)amino)-4-methoxyphenyl) acrylamide]
13 | A (GI50 < 50 nM) | C=CC(=O)Nc1cc(Nc2cc(N3OCC[C@@H]3c3ccc(F)cc3)ncn2)c(OC)cc1N1CCN(C)CC1 [compound 785, N-(5-((6-((R)-3-(4-fluorophenyl)isoxazolidine-2-yl)pyrimidine-4-yl)amino)-4-methoxy-2-(4-methylpiperazine-1-yl)phenyl)acrylamide]
14 | A (GI50 < 50 nM) | C=CC(=O)Nc1cc(Nc2cc(N3OCC[C@@H]3c3ccc(F)c(Cl)c3F)ncn2)c(OC)cc1N1CCC(N2CCN(C3CCC3)CC2)CC1 [Example 193, N-(5-((6-((R)-3-(3-chloro-2,4-difluorophenyl)isoxazolidine-2-yl)pyrimidine-4-yl)amino)-2-(4-(4-cyclobutylpiperazine-1-yl)piperidine-1-yl)-4-methoxyphenyl) acrylamide]
15 | A (GI50 < 50 nM) | C=CC(=O)Nc1cc(Nc2cc(N3OCC[C@@H]3c3cccc(Cl)c3Cl)ncn2)c(OC)cc1N1CCOCC1 [compound 517, N-(5-((6-((R)-3-(2,3-dichlorophenyl)isoxazolidine-2-yl)pyrimidine-4-yl)amino)-4-methoxy-2-morpholinophenyl) acrylamide]
16 | A (GI50 < 50 nM) | C=CC(=O)Nc1cc(Nc2cc(N3OCC[C@@H]3c3ccc(F)c(F)c3)ncn2)c(OC)cc1N1CCC(N2CCN(C)CC2)CC1 [compound 502, N-(5-((6-((R)-3-(3,4-difluorophenyl)isoxazolidine-2-yl)pyrimidine-4-yl)amino)-4-methoxy-2-(4-(4-methylpiperazine-1-yl)piperidine-1-yl)phenyl) acrylamide]
17 | A (GI50 < 50 nM) | C=CC(=O)Nc1cc(Nc2cc(N3OCC[C@@H]3c3ccc(F)c(Cl)c3F)ncn2)c(OC)cc1N(C)CCN(C)C [compound 603, N-(5-((6-((R)-3-(3-chloro-2,4-difluorophenyl)isoxazolidine-2-yl)pyrimidine-4-yl)amino)-2-((2-(dimethylamino)ethyl)(methyl)amino)-4-methoxyphenyl) acrylamide]
18 | B (50 nM ≤ GI50 < 500 nM) | C=CC(=O)Nc1cc(Nc2cc(N3OCC[C@@H]3c3cccc(C#N)c3)ncn2)c(OC)cc1N1CC[C@@H](N(C)C)C1 [compound 395, N-(5-((6-((R)-3-(3-cyanophenyl)isoxazolidine-2-yl)pyrimidine-4-yl)amino)-2-((R)-3-(dimethylamino)pyrolidine-1-yl)-4-methoxyphenyl) acrylamide]
19 | A (GI50 < 50 nM) | C=CC(=O)Nc1cc(Nc2cc(N3OCC[C@@H]3c3ccc(F)c(Cl)c3)ncn2)c(OC)cc1N1CCC(N2CCO[C@@H](C)C2)CC1 [compound 873, N-(5-((6-((R)-3-(3-chloro-4-fluorophenyl)isoxazolidine-2-yl)pyrimidine-4-yl)amino)-4-methoxy-2-(4-((S)-2-methylmorpholino)piperidine-1-yl)phenyl) acrylamide]
20 | A (GI50 < 50 nM) | C=CC(=O)Nc1cc(Nc2cc(N3OCC[C@@H]3c3cc(F)ccc3F)ncn2)c(OC)cc1N1CCC(N2CC[C@H](N(C)C)C2)CC1 [compound 816, N-(5-((6-((R)-3-(2,5-difluorophenyl)isoxazolidine-2-yl)pyrimidine-4-yl)amino)-2-(4-((S)-3-(dimethylamino)pyrolidine-1-yl)piperidine-1-yl)-4-methoxyphenyl) acrylamide]
21 | A (GI50 < 50 nM) | C=CC(=O)Nc1cc(Nc2cc(N3OCC[C@@H]3c3cccc(Cl)c3Cl)ncn2)c(OC)cc1N1CCC(N(C)C)CC1 [compound 476, N-(5-((6-((R)-3-(2,3-dichlorophenyl)isoxazolidine-2-yl)pyrimidine-4-yl)amino)-2-(4-(dimethylamino)piperidine-1-yl)-4-methoxyphenyl) acrylamide]
22 | A (GI50 < 50 nM) | C=CC(=O)Nc1cc(Nc2cc(N3OCC[C@@H]3c3cccc(F)c3F)ncn2)c(OC)cc1N1CCN(C2CC2)CC1 [compound 333, N-(2-(4-cyclopropylpiperazine-1-yl)-5-((6-((R)-3-(2,3-difluorophenyl)isoxazolidine-2-yl)pyrimidine-4-yl)amino)-4-methoxyphenyl) acrylamide]
23 | A (GI50 < 50 nM) | C=CC(=O)Nc1cc(Nc2cc(N3OCC[C@@H]3c3ccc(F)cc3F)ncn2)c(OC)cc1N1CCC(N(C)CCOC)CC1 [compound 387, N-(5-((6-((R)-3-(2,4-difluorophenyl)isoxazolidine-2-yl)pyrimidine-4-yl)amino)-4-methoxy-2-(4-((2-methoxyethyl)(methyl)amino)piperidine-1-yl)phenyl)acrylamide]
24 | A (GI50 < 50 nM) | C=CC(=O)Nc1cc(Nc2cc(N3OCC[C@@H]3c3c(F)ccc(F)c3F)ncn2)c(OC)cc1N1CCC(N2C[C@@H]3C[C@H]2CO3)CC1 [compound 642, N-(2-(4-((1S,4S)-2-oxa-5-azabicyclo[2.2.1]heptane-5-yl)piperidine-1-yl)-4-methoxy-5-((6-((R)-3-(2,3,6-trifluorophenyl)isoxazolidine-2-yl)pyrimidine-4-yl)amino)phenyl)acrylamide]
